From patent US10590129B2 (Incozen Therapeutics Pvt. Ltd., priority 2010, dated 2020)
Where a name gives a salt, the structure may show the parent alone.

Tested on: MKN-45 cells
Experiment: Inhibition of MKN-45 proliferation (MTT)
Format: cell-based, human
Conditions: for inhibition at 0.1 µM / Inhibition (% Inhibition of MKN-45 proliferation): 0.1 μM
Description: Inhibition of MKN-45 Proliferation:
Cell proliferation assays were carried out using the high Met expressing human gastric adenocarcinoma cell line, MKN-45, according to the following schedule:
Day 1: Cells were plated in 96-well plates in complete growth medium.
Day 2: Compounds at desired concentrations were added.
Day 5: Cell viability was determined using the 3-[4,5-dimethylthiazol-2-yl]-2,5-diphenyltetrazolium bromide (MTT) dye reduction test.

[1] = Homo sapiens, MKN-45, MKN-45 proliferation

SMILES | inhibition at 0.1 µM [1] [%] | GI50 [1] [nM] | further results
CCNC(=O)c1ccc(-c2ccc3nnn(Cc4ccc5c(ccc[n+]5[O-])c4)c3n2)cc1Cl | < 25 | – | inhibition at 1 µM [1]: < 25%
Cc1n[nH]cc1-c1ccc2nnn(Cc3ccc4ncccc4c3)c2n1 | 25 to 50 | – | inhibition at 1 µM [1]: < 25%
CC(c1ccc2ncccc2c1)n1nnc2ccc(-c3ccc(C(N)=O)c(Cl)c3)nc21 (racemic) [Ex 214, 2-Chloro-4-(3-(1-(quinolin-6-yl)ethyl)-3H-[1,2,3]triazolo[4,5-b]pyridin-5-yl)benzamide] | 75 to 100 | ≤ 50 | –
C/C(=N/NC(=O)c1ccncc1)c1ccc2nnn(Cc3ccc4ncccc4c3)c2n1 (single isomer, unassigned) [Ex 220, N′-(1-(3-(quinolin-6-ylmethyl)-3H-[1,2,3]triazolo[4,5-b]pyridin-5-yl)ethylidene)iso-nicotinohydrazide] | < 25 | – | –
OCc1ccc(-c2ccc3nnn(Cc4ccc5ncccc5c4)c3n2)cc1F [Ex41, hydrochloride] | – | – | GI50 (MKN-45 proliferation, hydrochloride): 50 to 150 nM
O=C(NC1CCCCC1)c1ccc(-c2ccc3nnn(Cc4ccc5ncccc5c4)c3n2)cc1F [Ex45] | – | 50 to 150 | –
CNC(=O)c1cccc(-c2ccc3nnn(Cc4ccc5ncccc5c4)c3n2)c1 [Ex55] | – | 50 to 150 | –
C=CCNC(=O)c1ccc(-c2ccc3nnn(Cc4ccc5ncccc5c4)c3n2)cc1F [Ex61] | – | ≤ 50 | –
CONC(=O)c1ccc(-c2ccc3nnn(Cc4ccc5ncccc5c4)c3n2)cc1F [Ex62] | – | ≤ 50 | –
Nc1ccc(-c2ccc3nnn(Cc4ccc5ncccc5c4)c3n2)cc1 [Ex64] | < 25 | – | –
O=C(NCc1ccco1)c1ccc(-c2ccc3nnn(Cc4ccc5ncccc5c4)c3n2)cc1F [Ex92] | < 25 | – | –
O=C(NC1CC1)c1ccc(-c2ccc3nnn(Cc4ccc5ncccc5c4)c3n2)cc1Cl [Ex113] | 75 to 100 | – | –
C[C@H](c1ccc2ncccc2c1)n1nnc2ccc(-c3ccc(C(N)=O)c(Cl)c3)nc21 [Ex222] | – | 150 to 500 | –
O=C(O)c1ccc(-c2ccc3nnn(Cc4ccc5ncccc5c4)c3n2)cc1 [Ex 22, Lithium 4-(3-(quinolin-6-ylmethyl)-3H-[1,2,3]triazolo[4,5-b]pyridin-5-yl)benzoate] | – | – | inhibition at 1 µM (Homo sapiens, MKN-45 proliferation): < 25%
CN1CCN(C(=O)c2ccc(-c3ccc4nnn(Cc5ccc6ncccc6c5)c4n3)cc2)CC1 [Ex 26, (4-Methylpiperazin-1-yl)(4-(3-(quinolin-6-ylmethyl)-3H-[1,2,3]triazolo[4,5-b]pyridin-5-yl)phenyl)methanone] | – | < 1000 | –
CN(C)CCNC(=O)c1ccc(-c2ccc3nnn(Cc4ccc5ncccc5c4)c3n2)cc1 [Ex 27, N-(2-(dimethylamino)ethyl)-4-(3-(quinolin-6-ylmethyl)-3H-[1,2,3]triazolo[4,5-b]pyridin-5-yl)benzamide] | – | 50 to 150 | –
O=C(NC1CCOCC1)c1ccc(-c2ccc3nnn(Cc4ccc5ncccc5c4)c3n2)cc1 [Ex 28, 4-(3-(quinolin-6-ylmethyl)-3H-[1,2,3]triazolo[4,5-b]pyridin-5-yl)-N-(tetrahydro-2H-pyran-4-yl)benzamide] | – | 150 to 500 | –
O=C(NC1CCNCC1)c1ccc(-c2ccc3nnn(Cc4ccc5ncccc5c4)c3n2)cc1 [Ex 30, N-(Piperidin-4-yl)-4-(3-(quinolin-6-ylmethyl)-3H-[1,2,3]triazolo[4,5-b]pyridin-5-yl)benzamide hydrochloride] | – | 150 to 500 | –
CN(C)CCNC(=O)c1ccc(-c2ccc3nnn(Cc4ccc5ncccc5c4)c3n2)cc1F [Ex 31, N-(2-(dimethylamino)ethyl)-2-fluoro-4-(3-(quinolin-6-ylmethyl)-3H-[1,2,3]triazolo[4,5-b]pyridin-5-yl)benzamide] | – | 150 to 500 | –
O=C(c1ccc(-c2ccc3nnn(Cc4ccc5ncccc5c4)c3n2)cc1)N1CCC[C@H]1CN1CCCC1 [Ex 32, (S)-(2-(pyrrolidin-1-ylmethyl)pyrrolidin-1-yl)(4-(3-(quinolin-6-ylmethyl)-3H-[1,2,3]triazolo[4,5-b]pyridin-5-yl)phenyl)methanone hydrochloride] | – | < 1000 | –

SMILES | inhibition at 0.1 µM [1] [%] | GI50 [1] [nM] | further results
O=C(c1ccc(-c2ccc3nnn(Cc4ccc5ncccc5c4)c3n2)cc1)N1CCN(CCO)CC1 [Ex 33, (4-(2-hydroxyethyl)piperazin-1-yl)(4-(3-(quinolin-6-ylmethyl)-3H-[1,2,3]triazolo[4,5-b]pyridin-5-yl)phenyl)methanone] | – | 150 to 500 | –
O=C(c1ccc(-c2ccc3nnn(Cc4ccc5ncccc5c4)c3n2)cc1)N1CC[C@@H](O)C1 [Ex 34, (R)-(3-hydroxypyrrolidin-1-yl)(4-(3-(quinolin-6-ylmethyl)-3H-[1,2,3]triazolo[4,5-b]pyridin-5-yl)phenyl)methanone hydrochloride] | – | < 1000 | –
O=C(NCCN1CCCCC1)c1ccc(-c2ccc3nnn(Cc4ccc5ncccc5c4)c3n2)cc1 [Ex 35, N-(2-(piperidin-1-yl)ethyl)-4-(3-(quinolin-6-ylmethyl)-3H-[1,2,3]triazolo[4,5-b]pyridin-5-yl)benzamide] | – | 50 to 150 | –
O=C(NCCN1CCOCC1)c1ccc(-c2ccc3nnn(Cc4ccc5ncccc5c4)c3n2)cc1 [Ex 36, N-(2-morpholinoethyl)-4-(3-(quinolin-6-ylmethyl)-3H-[1,2,3]triazolo[4,5-b]pyridin-5-yl)benzamide] | – | 50 to 150 | –
O=C(NCCN1CCCC1)c1ccc(-c2ccc3nnn(Cc4ccc5ncccc5c4)c3n2)cc1 [Ex 37, N-(2-(pyrrolidin-1-yl)ethyl)-4-(3-(quinolin-6-ylmethyl)-3H-[1,2,3]triazolo[4,5-b]pyridin-5-yl)benzamide] | – | ≤ 50 | –
O=C(c1ccc(-c2ccc3nnn(Cc4ccc5ncccc5c4)c3n2)cc1)N1CCC(N2CCCC2)CC1 [Ex 38, (4-(pyrrolidin-1-yl)piperidin-1-yl)(4-(3-(quinolin-6-ylmethyl)-3H-[1,2,3]triazolo[4,5-b]pyridin-5-yl)phenyl)methanone] | – | < 1000 | –
CN(C)CCCNC(=O)c1ccc(-c2ccc3nnn(Cc4ccc5ncccc5c4)c3n2)cc1 [Ex 39, N-(3-(dimethylamino)propyl)-4-(3-(quinolin-6-ylmethyl)-3H-[1,2,3]triazolo[4,5-b]pyridin-5-yl)benzamide] | – | 50 to 150 | –
COCCN(CCOC)C(=O)c1ccc(-c2ccc3nnn(Cc4ccc5ncccc5c4)c3n2)cc1 [Ex 40, N,N-Bis(2-methoxyethyl)-4-(3-(quinolin-6-ylmethyl)-3H-[1,2,3]triazolo[4,5-b]pyridin-5-yl)benzamide hydrochloride] | – | < 1000 | –
O=C(NCCN1CCCC1)c1ccc(-c2ccc3nnn(Cc4ccc5ncccc5c4)c3n2)cc1F [Ex 44, 2-Fluoro-N-(2-(pyrrolidin-1-yl)ethyl)-4-(3-(quinolin-6-ylmethyl)-3H-[1,2,3]triazolo[4,5-b]pyridin-5-yl)benzamide] | – | 50 to 150 | –
CNC(=O)c1cccc(-c2ccc3nnn(Cc4ccc5ncccc5c4)c3n2)c1 [Ex 55, N-Methyl-3-(3-(quinolin-6-ylmethyl)-3H-[1,2,3]triazolo[4,5-b]pyridin-5-yl)benzamide] | < 25 | – | –
O=C(O)CCNc1ccc(-c2ccc3nnn(Cc4ccc5ncccc5c4)c3n2)cc1F [Ex 58, 3-(2-Fluoro-4-(3-(quinolin-6-ylmethyl)-3H-[1,2,3]triazolo[4,5-b]pyridin-5-yl)phenylamino)propanoic acid] | < 25 | – | inhibition at 1 µM [1]: < 25%
CCNC(=O)c1ccc(-c2ccc3nnn(Cc4ccc5ncccc5c4)c3n2)cc1F [Ex 73, N-Ethyl-2-fluoro-4-(3-(quinolin-6-ylmethyl)-3H-[1,2,3]triazolo[4,5-b]pyridin-5-yl)benzamide hydrochloride] | 75 to 100 | – | inhibition at 1 µM [1]: 50 to 75%
NC(=O)c1ccc(-c2ccc3nnn(Cc4ccc5ncccc5c4)c3n2)cc1F [Ex 74, 2-Fluoro-4-(3-(quinolin-6-ylmethyl)-3H-[1,2,3]triazolo[4,5-b]pyridin-5-yl)benzamide hydrochloride] | 50 to 75 | – | inhibition at 1 µM [1]: 50 to 75%
CC(C)(c1ccc2ncccc2c1)n1nnc2ccc(-c3ccc(C(N)=O)c(F)c3)nc21 [Ex 84, 2-Fluoro-4-(3-(2-(quinolin-6-yl)propan-2-yl)-3H-[1,2,3]triazolo[4,5-b]pyridin-5-yl)benzamide] | < 25 | – | inhibition at 1 µM [1]: < 25%
O=C(NC1CC1)c1ccc(-c2ccc3nnn(Cc4ccc5c(ccc[n+]5[O-])c4)c3n2)cc1F [Ex 88, 6-((5-(4-(Cyclopropylcarbamoyl)-3-fluorophenyl)-3H-[1,2,3]triazolo[4,5-b]pyridin-3-yl)methyl)quinoline 1-oxide] | < 25 | – | inhibition at 1 µM [1]: < 25%
CN(C)CCCNC(=O)c1ccc(-c2ccc3nnn(Cc4ccc5ncccc5c4)c3n2)cc1F [Ex 121, N-(3-(dimethylamino)propyl)-2-fluoro-4-(3-(quinolin-6-ylmethyl)-3H-[1,2,3]triazolo[4,5-b]pyridin-5-yl)benzamide dihydrochloride] | – | – | inhibition at 1 µM [1]: < 25%; Inhibition (% Inhibition of MKN-45 proliferation) (MKN-45 proliferation, dihydrochloride): A (A = ≥75 to 100%)
Cl.NC(=O)c1ccc(-c2ccc3nnn(Cc4ccc5ncccc5c4)c3n2)cc1Cl [Ex 123, 2-Chloro-4-(3-(quinolin-6-ylmethyl)-3H-[1,2,3]triazolo[4,5-b]pyridin-5-yl)benzamide hydrochloride] | – | – | Inhibition (% Inhibition of MKN-45 proliferation) (MKN-45 proliferation): B (B = ≥50-<75%)
NCCCNC(=O)c1ccc(-c2ccc3nnn(Cc4ccc5ncccc5c4)c3n2)cc1F [Ex 125, N-(3-Aminopropyl)-2-fluoro-4-(3-(quinolin-6-ylmethyl)-3H-[1,2,3]triazolo[4,5-b]pyridin-5-yl)benzamide dihydrochloride] | < 25 | – | inhibition at 1 µM [1]: < 25%
CN(C)CCCNC(=O)c1ccc(-c2ccc3nnn(Cc4ccc5ncccc5c4)c3n2)cc1Cl [Ex 126, 2-Chloro-N-(3-(dimethylamino)propyl)-4-(3-(quinolin-6-ylmethyl)-3H-[1,2,3]triazolo[4,5-b]pyridin-5-yl)benzamide dihydrochloride] | 75 to 100 | – | –
